Bridge positions count the residues as written; N and C are the ends. Square brackets hold non-standard residues; d marks the D form. Peptide text beside a SMILES is read from it. Hyp = O=C(O)[C@@H]1C[C@@H](O)CN1
molecular target: T1, hAMY3 receptor (Homo sapiens, UniProt O60896+P30988); experiment: cAMP assay for in vitro receptor activation, hAMY3-R; type: cell-based; conditions: cAMP assay, hAMY3 receptor; read-out: hAMY3R EC50
T1 sequence (P30988 25-474): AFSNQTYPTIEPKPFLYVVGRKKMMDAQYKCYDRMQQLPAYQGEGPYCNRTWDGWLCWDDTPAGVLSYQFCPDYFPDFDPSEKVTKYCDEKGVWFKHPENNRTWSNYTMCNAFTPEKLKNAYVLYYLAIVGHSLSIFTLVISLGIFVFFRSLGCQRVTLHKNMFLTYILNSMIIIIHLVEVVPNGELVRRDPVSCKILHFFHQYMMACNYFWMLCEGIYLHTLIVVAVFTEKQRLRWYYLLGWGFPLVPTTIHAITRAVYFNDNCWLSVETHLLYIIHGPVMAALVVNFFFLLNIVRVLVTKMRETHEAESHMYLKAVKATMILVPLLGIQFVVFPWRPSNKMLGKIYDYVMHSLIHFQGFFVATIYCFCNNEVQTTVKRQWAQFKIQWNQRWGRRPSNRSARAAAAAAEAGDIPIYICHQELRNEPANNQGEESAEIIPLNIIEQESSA
T1 sequence (O60896 24-148 partner): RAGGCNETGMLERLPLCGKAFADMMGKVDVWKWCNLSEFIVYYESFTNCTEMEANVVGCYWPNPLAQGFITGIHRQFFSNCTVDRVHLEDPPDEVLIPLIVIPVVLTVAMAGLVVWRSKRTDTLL
Method in brief: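 Monoclonal cell line stably overexpressing hAMY3 receptor, plated in DPBS with 0.05% casein and 0.5 mM IBMX, was stimulated with graded compound doses for 30 min at room temperature. cAMP accumulation was read by time-resolved FRET one hour after adding detection reagents.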

| EC50 [nM] | SMILES |
| --- | --- |
| 0.021 | CC[C@H](C)[C@H](NC(=O)[C@H](CCCCN)NC(=O)[C@@H](NC(=O)[C@H](CCCNC(=N)N)NC(=O)[C@@H]1CCCN1C(=O)[C@H](C)NC(=O)[C@@H](NC(=O)[C@H](CC(N)=O)NC(=O)[C@H](CC(=O)O)NC(=O)[C@H](CCCCN)NC(=O)[C@H](CC(=O)O)NC(=O)[C@H](CCCCN)NC(=O)[C@H](CC(=O)O)NC(=O)[C@@H](NC(=O)[C@H](Cc1ccccc1)NC(=O)[C@H](CCC(N)=O)NC(=O)[C@H](Cc1ccc(O)cc1)NC(=O)[C@@H](NC(=O)[C@H](CCC(N)=O)NC(=O)[C@H](Cc1c[nH]cn1)NC(=O)[C@H](C)NC(=O)[C@H](CC(C)C)NC(=O)[C@H](CCCNC(=N)N)NC(=O)[C@H](CCC(N)=O)NC(=O)[C@@H](NC(=O)[C@@H](NC(=O)[C@@H]1CSSC[C@H](NC(=O)CN)C(=O)N[C@@H](CCCNC(=N)N)C(=O)N[C@@H](Cc2ccccc2)C(=O)NCC(=O)N[C@@H]([C@@H](C)O)C(=O)N1)[C@@H](C)O)C(C)C)[C@@H](C)CC)[C@@H](C)O)C(C)C)[C@@H](C)O)C(=O)NCC(=O)N1CCC[C@H]1C(=O)N[C@@H](CCC(N)=O)C(=O)NCC(=O)N1C[C@H](O)C[C@H]1C(N)=O [compound 111] (H-GCRFGTCTVQRLAHQIYQFTDKDKDNVAPRTKIGPQG[Hyp]-NH2; disulfide 2-7; N-terminus assumed) |
| 0.034 | CC[C@H](C)[C@H](NC(=O)[C@H](CC(N)=O)NC(=O)[C@H](CO)NC(=O)[C@H](CCCNC(=N)N)NC(=O)[C@@H]1CCCN1C(=O)[C@H](C)NC(=O)[C@@H](NC(=O)[C@H](CC(N)=O)NC(=O)[C@H](CC(=O)O)NC(=O)[C@H](CCCCN)NC(=O)[C@H](CC(=O)O)NC(=O)[C@H](CCCCN)NC(=O)[C@H](CC(=O)O)NC(=O)[C@@H](NC(=O)[C@H](Cc1ccccc1)NC(=O)[C@H](CCC(N)=O)NC(=O)[C@H](Cc1ccc(O)cc1)NC(=O)[C@@H](NC(=O)[C@H](CCC(N)=O)NC(=O)[C@H](Cc1c[nH]cn1)NC(=O)[C@H](C)NC(=O)[C@H](CC(C)C)NC(=O)[C@H](CCCNC(=N)N)NC(=O)[C@H](CCC(N)=O)NC(=O)[C@@H](NC(=O)[C@@H](NC(=O)[C@@H]1CSSC[C@H](NC(=O)CN)C(=O)N[C@@H](CCCNC(=N)N)C(=O)N[C@@H](Cc2ccccc2)C(=O)NCC(=O)N[C@@H]([C@@H](C)O)C(=O)N1)[C@@H](C)O)C(C)C)[C@@H](C)CC)[C@@H](C)O)C(C)C)C(=O)NCC(=O)N1CCC[C@H]1C(=O)N[C@@H](CCC(N)=O)C(=O)NCC(=O)N[C@@H](Cc1ccc(O)cc1)C(N)=O [compound 382] (H-GCRFGTCTVQRLAHQIYQFTDKDKDNVAPRSNIGPQGY-NH2; disulfide 2-7) |
| 0.008 | CC(C)C[C@H](NC(=O)[C@H](CCCNC(=N)N)NC(=O)[C@H](CCC(N)=O)NC(=O)[C@@H](NC(=O)[C@@H](NC(=O)[C@@H]1CSSC[C@H](NC(=O)CN)C(=O)N[C@@H](CCCNC(=N)N)C(=O)N[C@@H](Cc2ccccc2)C(=O)NCC(=O)N[C@@H]([C@@H](C)O)C(=O)N1)[C@@H](C)O)C(C)C)C(=O)N[C@@H](C)C(=O)N[C@@H](CC(N)=O)C(=O)N[C@@H](Cc1ccccc1)C(=O)N[C@@H](CC(C)C)C(=O)N[C@@H](Cc1ccc(O)cc1)C(=O)N[C@@H](CCC(N)=O)C(=O)N[C@@H](Cc1ccccc1)C(=O)N[C@H](C(=O)N[C@@H](CC(=O)O)C(=O)N[C@@H](CCCCN)C(=O)N[C@@H](CC(=O)O)C(=O)N[C@@H](CCCCN)C(=O)N[C@@H](CC(=O)O)C(=O)N[C@@H](CC(N)=O)C(=O)N[C@H](C(=O)N[C@@H](C)C(=O)N1CCC[C@H]1C(=O)N[C@@H](CCCNC(=N)N)C(=O)N[C@H](C(=O)N[C@@H](CC(N)=O)C(=O)N[C@H](C(=O)NCC(=O)N1CCC[C@H]1C(=O)N[C@@H](CCC(N)=O)C(=O)NCC(=O)N[C@@H](Cc1ccc(O)cc1)C(N)=O)C(C)C)[C@@H](C)O)C(C)C)[C@@H](C)O [compound 16] (H-GCRFGTCTVQRLANFLYQFTDKDKDNVAPRTNVGPQGY-NH2; disulfide 2-7) |

Source: patent US12139520B2 (priority 2020, dated 2024)
